Experimental data as given in PubChem BioAssay AID2060907 (Molecular Pharmacology Branch, DTP, NCI, 2025).

System: 388556-164-R-J1-PDC complex spheroid viability
Assay: Anticancer human tumor 388556-164-R-J1-PDC patient-derived colon adenocarcinoma cell line growth inhibition [RAS]
Conditions: for IC50: curve of first compound; for viability, T/C: stronger effect = lower value
Source text: RAS pathway inhibitors in Combinations in Complex Spheroids
A high-throughput screen of multi-cell type tumor spheroids was designed to identify active combinations of RAS pathway inhibitors and targeted small molecules. Complex spheroids include a stromal component modeled by human endothelial cells (HUVEC) and fibroblasts modeled by human mesenchymal stem cells (MSCs). The concentration ranges selected for each drug and investigational agent were based upon clinically achievable concentrations if the clinical Cmax of the agent was known.
Compounds. The drugs and investigational agents: abemaciclib (NSC768073), cobimetinib (NSC768068), divarasib (GDC6063, NSC841802), docetaxel (NSC628503), GDC-1971 (RLY-1971, NSC841576), gemcitabine (NSC613327), inavolisib (NSC800729), ipatasertib (NSC767898), KB-0742 (NSC834161), MRTX-1133 (NSC836407), osimertinib (NSC779217), RMC-4630 (NSC839698), RMC-6236 (NSC851965), RMC-6291 (NSC852671), Ro-3306 (NSC812927), sapanisertib (NSC764658), SN-38 (NSC673596), staurosporine (NSC755774), SY5609 (NSC837396), and tovorafenib (DAY101, NSC766906), were obtained from the National Cancer Institute (NCI) Developmental Therapeutics Program Chemical Repository. The FDA-approved anticancer drug set is available from the NCI Developmental Therapeutics Program. […] The stock solutions were prepared in dimethyl sulfoxide (DMSO, Sigma-Aldrich, St. Louis, MO, cat. D2650) at 800-fold the tested concentration and stored at -70 degrees C prior to their use. All drugs and investigational agents were tested over a range starting from a high concentration at or near the clinical Cmax and decreasing in half-log increments. If the clinical Cmax for an agent had not been determined, the highest concentration tested was 10 microM.
Cell Culture. All cells were maintained in an incubator at 37 degrees C and 5% CO2 with 95% humidity. The PDC lines were cultured according to standard operating procedures established by the NCI PDMR. All PDCs were thawed and cultured in Matrigel-coated flasks prepared with a working solution of 1X Ham's F-12 nutrient mix, without supplementation (Invitrogen, Waltham, MA, cat. 11765054), 100 U/mL penicillin-streptomycin (Invitrogen, cat. 15140122), and 2.5% Matrigel (Corning Inc., Corning, NY, cat. 354248) for the first three passages. The 362531-283-R-J2-PDC and 782815-120-R-J1-PDC lines were cultured in 6C/Colon 1B media, which includes advanced DMEM/F-12 (Thermo Fisher Scientific, cat. 12634028), 10 mM HEPES (Thermo Fisher Scientific, cat. 15630080), 1X GlutaMAX supplement (Thermo Fisher Scientific, cat. 35050061), 0.1 mg/mL primocin (InvivoGen, San Diego, CA, cat. ant-pm-2), 10% defined fetal bovine serum, heat inactivated (HyClone Laboratories Inc., Logan, UT, cat. SH30070.03HI), 50% L-WRN conditioned media (ATCC, cat. CRL-3276), 1.25 mM N-Acetyl-L-cysteine (Sigma-Aldrich, cat. A9165), 10 mM nicotinamide (Sigma-Aldrich, cat. N0636), 1X B-27 supplement (Thermo Fisher Scientific, cat. 17504044), 1X N-2 supplement (Thermo Fisher Scientific, cat. 17502048), 50 ng/mL human EGF (Thermo Fisher Scientific, cat. PHG0311), and 10 microM Y-27632 dihydrochloride (Tocris Bioscience, cat. 1254). The K12877-001-R-J1-PDC line was cultured in 6I media, which includes all 6C/Colon 1B media plus 10 ng/mL human FGF-10 (PeproTech, cat. 100-26), 1 ng/mL human FGF-2 (PeproTech, cat. 100-18B), 1 µM prostaglandin E2 (Tocris Bioscience, cat. 2296), […] hydrocortisone (Sigma-Aldrich, cat. H4001), and […] bovine insulin (Sigma-Aldrich, cat. I6634). The K86415-001-R-J1-PDC line was cultured in 6D media, which includes all 6C/Colon 1B media components minus the L-WRN conditioned media. The 485176-168-R4-J1-PDC was cultured in PANC media, which includes all 6C/Colon 1B media plus 100 ng/mL human FGF-10 (PeproTech, cat. 100-26), 500 nM SB-431542 (Selleckchem, cat. S1067), and 10 nM gastrin (Tocris Bioscience, cat. 3006). […]
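Also: spheroids exposed to compound for 7 days before readout.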
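For viability, T/C in this document: 100% = DMSO vehicle control luminescence.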

C[C@@H](NC(=O)c1ncnc(N)c1Cl)c1ncc(C(=O)Nc2cc(C(F)(F)F)c(Cl)cn2)s1 + C=CC(=O)N1CCN(c2nc(OCC3CCCN3C)nc3c(F)c(-c4nc(N)cc(C)c4C(F)(F)F)c(Cl)cc23)C(C)C1
IC50 (second compound 0.00316 µM): > 10 µM | IC50 (second compound 0.01 µM): > 10 µM | IC50 (second compound 0.0316 µM): > 10 µM | IC50 (second compound 0.1 µM): > 10 µM | IC50 (second compound 0.316 µM): > 10 µM | IC50 (second compound 1 µM): > 10 µM | viability, T/C (second compound 0.00316 µM, first compound 0.0316 µM): 111% | viability, T/C (second compound 0.00316 µM, first compound 0.1 µM): 114% | viability, T/C (second compound 0.00316 µM, first compound 0.316 µM): 133% | viability, T/C (second compound 0.00316 µM, first compound 1 µM): 111% | viability, T/C (second compound 0.00316 µM, first compound 3.16 µM): 112% | viability, T/C (second compound 0.00316 µM, first compound 10 µM): 104% | viability, T/C (second compound 0.01 µM, first compound 0.0316 µM): 111% | viability, T/C (second compound 0.01 µM, first compound 0.1 µM): 115% | viability, T/C (second compound 0.01 µM, first compound 0.316 µM): 121% | viability, T/C (second compound 0.01 µM, first compound 1 µM): 114% | viability, T/C (second compound 0.01 µM, first compound 3.16 µM): 119% | viability, T/C (second compound 0.01 µM, first compound 10 µM): 98.4% | viability, T/C (second compound 0.0316 µM, first compound 0.0316 µM): 111% | viability, T/C (second compound 0.0316 µM, first compound 0.1 µM): 118% | viability, T/C (second compound 0.0316 µM, first compound 0.316 µM): 116% | viability, T/C (second compound 0.0316 µM, first compound 1 µM): 117% | viability, T/C (second compound 0.0316 µM, first compound 3.16 µM): 128% | viability, T/C (second compound 0.0316 µM, first compound 10 µM): 101% | viability, T/C (second compound 0.1 µM, first compound 0.0316 µM): 109% | viability, T/C (second compound 0.1 µM, first compound 0.1 µM): 109% | viability, T/C (second compound 0.1 µM, first compound 0.316 µM): 110% | viability, T/C (second compound 0.1 µM, first compound 1 µM): 117% | viability, T/C (second compound 0.1 µM, first compound 3.16 µM): 117% | viability, T/C (second compound 0.1 µM, first compound 10 µM): 91.8% | viability, T/C (second compound 0.316 µM, first compound 0.0316 µM): 126% | viability, T/C (second compound 0.316 µM, first compound 0.1 µM): 122% | viability, T/C (second compound 0.316 µM, first compound 0.316 µM): 113% | viability, T/C (second compound 0.316 µM, first compound 1 µM): 125% | viability, T/C (second compound 0.316 µM, first compound 3.16 µM): 122% | viability, T/C (second compound 0.316 µM, first compound 10 µM): 97.1% | viability, T/C (second compound 1 µM, first compound 0.0316 µM): 119% | viability, T/C (second compound 1 µM, first compound 0.1 µM): 116% | viability, T/C (second compound 1 µM, first compound 0.316 µM): 127% | viability, T/C (second compound 1 µM, first compound 1 µM): 133% | viability, T/C (second compound 1 µM, first compound 3.16 µM): 119% | viability, T/C (second compound 1 µM, first compound 10 µM): 97.7%
